According to patent US12180508B2, “Method of preparing in vitro-matured human intestinal organoids and use thereof” (KOREA RESEARCH INSTITUTE OF BIOSCIENCE AND BIOTECHNOLOGY, priority 2018, dated 2024):
Like-named read-outs stand apart in the source and are kept apart here.

Experiments:
[1] = molecular target: T1, CFTR (Homo sapiens, UniProt P13569); assay: Forskolin-induced organoid swelling assay (CFTR function); assay type: cell-based; conditions: mature organoids, forskolin 25 uM, 120 minutes
T1 construct: To examine the function of CFTR present in mature intestine epithelial cells in organoid models; endogenous in cells; host or cells: hPSC-derived human intestinal organoids (control, co-cultured with Jurkat T cells, or IL-2-treated)
Protocol: To examine the function of CFTR present in mature intestine epithelial cells in organoid models, forskolin-induced organoid swelling assay was performed. Control and co-cultured or IL-2-treated hIOs (n=4) were treated with forskolin (25 uM, Merckmillopore), and then morphological observation was performed for 120 min at 20 min intervals through live imaging function of a microscope (IX83, Olympus). CFTR inhibitors (CFTRinh172, GlyH101) were co-treated, and morphological observation was performed for the same time. The size of organoids was calculated every hour, and mean values thereof were used to plot a graph.

[2] = system: hPSC-derived hIOs; assay: Growth / size (surface area, budding) of hPSC-derived hIOs; assay type: cell-based, human; conditions: for stimulation of IL-2 on hIO growth in presence of inhibitor: with IL-2, S31-201 10 μM, Stattic 1 μM, Rapamycin 10 nM; for growth of hIOs with many crypt-like budding structures: treatment with STAT3 activators
Protocol: To estimate the size of hIOs, surface areas of horizontal cross-sections of hIOs were measured.

[3] = system: p-STAT3 (Y705); assay: Phospho-STAT3 immunostaining of hIOs; assay type: cell-based, human; conditions: IL-2 treated Mat-hIOs; Stattic 1 μM or S3I-201 10 μM
Protocol: (§1) An immunofluorescence analysis was performed according to a known method (Kwak et al., Biochemical and biophysical research communications 457, 554-560, 2015). In detail, hPSCs and definitive endodermal cells were fixed in 4% paraformaldehyde (PFA) and then permeabilized with PBS containing 0.1% Triton X-100.
(§2) hIOs and tissues were fixed, cryo-protected in sucrose, and frozen using an optimal-cutting-temperature (OCT) compound (Sakura Finetek, Tokyo, Japan). Then, frozen sections were cut at a thickness of 10-20 μm using a cryostat microtome at −20° C. and permeabilized with PBS containing 0.1% Triton X-100 for immunofluorescence analysis.
(§3) In detail, after being blocked with 4% BSA, cells were incubated with primary antibodies at 4° C. overnight, and then incubated with secondary antibodies for 1 hr at room temperature. The used primary antibodies are as in Table 2. Paraffin sections were deparaffinized, subjected to antigen retrieval, and stained in a similar manner to OCT sections. DAPI was added to visualize nuclei. Slides were examined with an Axiovert 200M microscope (Carl Zeiss, Gottingen, Germany) or a fluorescence microscope (IX51, Olympus, Japan).

[4] = molecular target: P-glycoprotein (P-gp)/MDR1 (Homo sapiens, UniProt P08183); conditions: paclitaxel 10 μM basolateral, 2 hr incubation
[5] = system: hIOs; assay: qPCR of intestinal maturation markers in hIOs; assay type: cell-based, human; conditions: colivelin treatment compared with control hIOs
Protocol: Total RNA was extracted from cells using an RNeasy Kit (Qiagen), and reverse-transcribed using a Superscript III cDNA synthesis kit (Invitrogen). qRT-PCR was performed by a method disclosed in a 7500 Fast Real-time PCR system (Applied Biosystems, Foster City, CA, USA) (Cho et al., Oncotarget 6, 23837-23844, 2015). All experiments were performed in triplicate, and CT value of each target gene was calculated using a software provided by the manufacturer. Nucleotide sequences of the used primers are as in Table 1.

[6] = system: hIOs; assay: Immunofluorescence staining of marker proteins in hIOs; assay type: cell-based, human; conditions: colivelin treatment
Protocol: as §1, §2, §3

T1 sequence (P13569 whole entry): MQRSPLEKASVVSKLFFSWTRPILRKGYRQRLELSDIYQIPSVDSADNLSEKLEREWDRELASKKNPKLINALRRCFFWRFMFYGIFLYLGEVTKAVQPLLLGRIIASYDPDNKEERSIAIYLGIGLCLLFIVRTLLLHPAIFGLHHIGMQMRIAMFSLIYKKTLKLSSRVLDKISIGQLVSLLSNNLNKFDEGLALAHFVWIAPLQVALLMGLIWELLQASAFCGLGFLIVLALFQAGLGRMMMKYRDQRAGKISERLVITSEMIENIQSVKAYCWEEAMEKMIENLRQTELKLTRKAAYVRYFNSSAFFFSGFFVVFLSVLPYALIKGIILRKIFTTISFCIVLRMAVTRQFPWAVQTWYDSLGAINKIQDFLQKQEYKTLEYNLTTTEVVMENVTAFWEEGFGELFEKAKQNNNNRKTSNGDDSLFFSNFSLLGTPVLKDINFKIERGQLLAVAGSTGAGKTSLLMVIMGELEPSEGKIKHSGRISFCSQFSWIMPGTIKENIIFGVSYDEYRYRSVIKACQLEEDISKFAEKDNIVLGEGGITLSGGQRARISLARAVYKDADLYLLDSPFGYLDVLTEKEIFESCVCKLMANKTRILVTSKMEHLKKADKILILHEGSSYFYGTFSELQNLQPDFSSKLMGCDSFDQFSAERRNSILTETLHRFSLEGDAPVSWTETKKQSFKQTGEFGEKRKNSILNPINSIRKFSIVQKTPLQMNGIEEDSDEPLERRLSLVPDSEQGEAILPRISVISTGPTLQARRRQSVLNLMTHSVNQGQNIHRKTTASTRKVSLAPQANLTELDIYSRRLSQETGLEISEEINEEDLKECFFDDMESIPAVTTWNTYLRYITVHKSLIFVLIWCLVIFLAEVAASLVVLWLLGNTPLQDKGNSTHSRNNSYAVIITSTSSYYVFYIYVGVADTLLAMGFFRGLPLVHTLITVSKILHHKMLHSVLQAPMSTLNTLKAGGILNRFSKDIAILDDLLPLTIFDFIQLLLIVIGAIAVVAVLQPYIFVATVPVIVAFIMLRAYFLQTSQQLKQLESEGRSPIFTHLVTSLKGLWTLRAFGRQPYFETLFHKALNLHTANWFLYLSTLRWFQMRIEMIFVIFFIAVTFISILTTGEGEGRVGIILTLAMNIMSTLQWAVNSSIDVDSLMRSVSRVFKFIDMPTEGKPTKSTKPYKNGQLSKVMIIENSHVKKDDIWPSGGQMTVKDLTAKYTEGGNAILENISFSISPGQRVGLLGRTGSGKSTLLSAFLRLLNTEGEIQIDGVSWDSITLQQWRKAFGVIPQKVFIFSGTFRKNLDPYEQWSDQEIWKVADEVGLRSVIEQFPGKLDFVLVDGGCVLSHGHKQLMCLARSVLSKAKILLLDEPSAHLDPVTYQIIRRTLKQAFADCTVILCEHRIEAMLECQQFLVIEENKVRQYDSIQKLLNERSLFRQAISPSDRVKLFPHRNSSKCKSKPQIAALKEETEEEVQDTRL
Chain of P-glycoprotein (P-gp)/MDR1 (P08183 whole entry): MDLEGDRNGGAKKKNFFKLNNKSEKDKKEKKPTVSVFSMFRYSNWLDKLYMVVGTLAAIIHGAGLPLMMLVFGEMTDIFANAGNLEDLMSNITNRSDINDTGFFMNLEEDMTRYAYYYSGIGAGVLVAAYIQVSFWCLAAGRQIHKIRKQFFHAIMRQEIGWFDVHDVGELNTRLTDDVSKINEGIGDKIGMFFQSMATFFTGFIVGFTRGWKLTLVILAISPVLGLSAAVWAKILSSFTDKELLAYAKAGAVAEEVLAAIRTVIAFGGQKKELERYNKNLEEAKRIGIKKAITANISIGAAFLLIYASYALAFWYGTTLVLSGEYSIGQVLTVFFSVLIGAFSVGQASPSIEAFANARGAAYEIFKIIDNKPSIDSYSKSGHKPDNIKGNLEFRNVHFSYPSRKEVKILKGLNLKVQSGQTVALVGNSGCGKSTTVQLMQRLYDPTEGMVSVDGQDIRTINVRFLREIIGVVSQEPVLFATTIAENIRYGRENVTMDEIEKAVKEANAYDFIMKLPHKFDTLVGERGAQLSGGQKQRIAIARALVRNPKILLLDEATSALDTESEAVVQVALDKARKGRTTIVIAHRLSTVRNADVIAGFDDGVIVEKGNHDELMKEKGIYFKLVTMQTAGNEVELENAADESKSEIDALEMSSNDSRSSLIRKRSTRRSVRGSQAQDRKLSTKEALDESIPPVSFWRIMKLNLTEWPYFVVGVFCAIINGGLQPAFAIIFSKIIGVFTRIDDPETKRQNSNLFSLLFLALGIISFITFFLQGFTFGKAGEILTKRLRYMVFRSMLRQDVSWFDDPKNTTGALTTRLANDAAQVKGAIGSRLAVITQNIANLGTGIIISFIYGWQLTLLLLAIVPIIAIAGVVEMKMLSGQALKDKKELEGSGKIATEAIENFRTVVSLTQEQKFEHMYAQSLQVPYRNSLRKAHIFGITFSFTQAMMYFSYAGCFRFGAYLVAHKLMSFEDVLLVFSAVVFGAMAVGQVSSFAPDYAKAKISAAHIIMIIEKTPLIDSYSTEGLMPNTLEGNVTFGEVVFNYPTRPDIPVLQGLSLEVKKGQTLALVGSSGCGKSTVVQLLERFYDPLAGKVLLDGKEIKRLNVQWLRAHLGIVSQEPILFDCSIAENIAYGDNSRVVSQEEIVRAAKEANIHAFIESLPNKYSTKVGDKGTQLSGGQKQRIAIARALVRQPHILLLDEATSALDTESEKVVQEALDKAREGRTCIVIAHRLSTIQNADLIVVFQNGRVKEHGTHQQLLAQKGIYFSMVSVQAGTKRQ

For `O=C(O)c1ccc(/C=C2\SC(=S)N(c3cccc(C(F)(F)F)c3)C2=O)cc1` [CFTRinh172], the “forskolin-induced swelling effect under CFTR inhibitor” value [1] was “completely blocked”.

In the case of `O=C(CNc1ccc2ccccc2c1)N/N=C/c1cc(Br)c(O)c(Br)c1O` [GlyH101], the “forskolin-induced swelling effect under CFTR inhibitor” value [1] is reported as “completely blocked”.

With `Cc1ccc(S(=O)(=O)OCC(=O)Nc2ccc(C(=O)O)c(O)c2)cc1` [S3I-201] the “stimulation of IL-2 on hIO growth in presence of inhibitor” value [2] was “prevented” and the “phosphorylation of STAT3 at tyrosine 705 (Y705)” value [3] was “blocked”.

In the case of `O=[N+]([O-])c1ccc2c(c1)S(=O)(=O)C=C2` [Stattic], the “stimulation of IL-2 on hIO growth in presence of inhibitor” value [2] is reported as “prevented” and the “phosphorylation of STAT3 at tyrosine 705 (Y705)” value [3] is reported as “blocked”.

For `CC(=O)O[C@H]1C(=O)[C@@]2(C)[C@H]([C@H](OC(=O)c3ccccc3)[C@]3(O)C[C@H](OC(=O)[C@H](O)[C@@H](NC(=O)c4ccccc4)c4ccccc4)C(C)=C1C3(C)C)[C@]1(OC(C)=O)CO[C@@H]1C[C@@H]2O` [paclitaxel], the “concentration of paclitaxel at the apical side, increase compared with control hIOs” value ([4]; IL-2-treated hIOs) was ~3 fold and the “concentration of paclitaxel at the apical side, increase compared with control hIOs” value ([4]; co-cultured hIOs) was “approximately 2.3 fold”.

For Colivelin, the “expression of intestinal maturation markers” value [5] was “increased”, the “growth of hIOs with many crypt-like budding structures” value [2] was “promoted the growth” and the “size of hIO” value ([2]; various concentrations of colivelin) was “increased”. For the same molecule, the “protein expression of Ki-67, OLFM4, MUC13 and KRT20” value [6] was “increased”.

B1: IL-22: another known STAT3 activator, cytokine (protein, UniProt Q9GZX6 34-179, looked up)
Interleukin-22: APISSHCRLDKSNFQQPYITNRTFMLAKEASLADNNTDVRLIGEKLFHGVSMSERCYLMKQVLNFTLEEVLFPQSDRFQPYMQEVVPFLARLSNRLSTCHIEGDDLHIQRNVQKLKDTVKKLGESGEIKAIGELDLLFMSLRNACI
B1 was tested, and the “growth of hIOs with many crypt-like budding structures” value [2] was “promoted the growth”.
